One compound from article PMC5218480 (PLoS ONE, 2017) can be followed below.

This test concerns MV-4-11 cells. Put plainly: Gene expression microarray analysis (Affymetrix PrimeView) and GSEA. The test is classed as cell-based, human. The arrangement: RFU PODN (11730768_x_at) / Fold change /veh PODN (11730768_x_at) / RFU LINC00158 (11744669_a_at) / Fold change /veh LINC00158 (11744669_a_at) / RFU DUSP10 (11751237_a_at) / Fold change /veh DUSP10 (11751237_a_at) / RFU ID3 (11757404_x_at) / Fold change /veh ID3 (11757404_x_at) / RFU PLEKHG5 (11737974_s_at) / Fold change /veh PLEKHG5 (11737974_s_at) / RFU LRRC4B (11730491_at) / Fold change /veh LRRC4B (11730491_at) / RFU GIMAP4 (11747438_a_at) / Fold change /veh GIMAP4 (11747438_a_at) / RFU KRT8 (11758183_x_at) / Fold change /veh KRT8 (11758183_x_at) / RFU CNN1 (11734310_a_at) / Fold change /veh CNN1 (11734310_a_at) / RFU VPS37D (11726825_at) / Fold change /veh VPS37D (11726825_at) / RFU C10orf10 (11716522_x_at) / Fold change /veh C10orf10 (11716522_x_at) / RFU KIR2DL2 /// KIR2DL4 /// KIR2DL5A /// KIR2DL5B /// KIR2DS1 /// KIR2DS2 /// KIR2DS3 /// KIR2DS4 /// KIR3DL3 /// KIR3DL3 /// KIR3DS1 (11738374_at) / Fold change /veh KIR2DL2 /// KIR2DL4 /// KIR2DL5A /// KIR2DL5B /// KIR2DS1 /// KIR2DS2 /// KIR2DS3 /// KIR2DS4 /// KIR3DL3 /// KIR3DL3 /// KIR3DS1 (11738374_at) / RFU C1QL1 (11718748_at) / Fold change /veh C1QL1 (11718748_at) / RFU TMPRSS4 (11747572_a_at) / Fold change /veh TMPRSS4 (11747572_a_at) / RFU HAMP (11756126_x_at) / Fold change /veh HAMP (11756126_x_at) / RFU RNFT2 (11725882_a_at) / Fold change /veh RNFT2 (11725882_a_at) / RFU NR4A2 (11747474_a_at) / Fold change /veh NR4A2 (11747474_a_at) / RFU ABCC12 (11746883_a_at) / Fold change /veh ABCC12 (11746883_a_at) / RFU TMEM136 (11760407_x_at) / Fold change /veh TMEM136 (11760407_x_at) / RFU CLDN22 /// WWC2 (11732394_at) / Fold change /veh CLDN22 /// WWC2 (11732394_at) / RFU HLA-DPB1 (11760878_x_at) / Fold change /veh HLA-DPB1 (11760878_x_at) / RFU SPINT1 (11716480_a_at) / Fold change /veh SPINT1 (11716480_a_at) / RFU GAP43 (11754022_s_at) / Fold change /veh GAP43 (11754022_s_at) / RFU A4GNT (11735810_at) / Fold change /veh A4GNT (11735810_at) / RFU PRB3 (11715151_x_at) / Fold change /veh PRB3 (11715151_x_at) / RFU TUBB4B (11761932_at) / Fold change /veh TUBB4B (11761932_at) / RFU CAPN14 (11732068_a_at) / Fold change /veh CAPN14 (11732068_a_at) / RFU TMCC2 (11721928_a_at) / Fold change /veh TMCC2 (11721928_a_at) / RFU IRGQ (11745062_a_at) / Fold change /veh IRGQ (11745062_a_at) / RFU FAM174B (11720279_a_at) / Fold change /veh FAM174B (11720279_a_at) / RFU TMPRSS4 (11748680_a_at) / Fold change /veh TMPRSS4 (11748680_a_at) / RFU FAM212B (11763350_a_at) / Fold change /veh FAM212B (11763350_a_at) / RFU PLEKHG5 (11743358_a_at) / Fold change /veh PLEKHG5 (11743358_a_at) / RFU ZSCAN30 (11745921_a_at) / Fold change /veh ZSCAN30 (11745921_a_at) / RFU CMKLR1 (11741424_a_at) / Fold change /veh CMKLR1 (11741424_a_at) / RFU LOC101060620 /// MAPK8IP1 (11723275_at) / Fold change /veh LOC101060620 /// MAPK8IP1 (11723275_at) / RFU SPTSSB (11747773_x_at) / Fold change /veh SPTSSB (11747773_x_at) / RFU PRSS12 (11739890_at) / Fold change /veh PRSS12 (11739890_at) / RFU BIN1 (11741810_x_at) / Fold change /veh BIN1 (11741810_x_at) / RFU WNT11 (11732464_a_at) / Fold change /veh WNT11 (11732464_a_at) / RFU C10orf10 (11716521_a_at) / Fold change /veh C10orf10 (11716521_a_at) / RFU C5orf56 (11738089_at) / Fold change /veh C5orf56 (11738089_at) / RFU CYB561 (11721691_x_at) / Fold change /veh CYB561 (11721691_x_at) / RFU ANKRD19P (11752326_a_at) / Fold change /veh ANKRD19P (11752326_a_at) / RFU OR2T12 /// OR2T33 /// OR2T8 (11738714_s_at) / Fold change /veh OR2T12 /// OR2T33 /// OR2T8 (11738714_s_at) / RFU VCAN (11748164_a_at) / Fold change /veh VCAN (11748164_a_at) / RFU JSRP1 (11732532_at) / Fold change /veh JSRP1 (11732532_at) / RFU KRTAP10-11 (11738290_x_at) / Fold change /veh KRTAP10-11 (11738290_x_at) / RFU MYO3A (11730013_a_at) / Fold change /veh MYO3A (11730013_a_at) / RFU EBF3 (11725865_a_at) / Fold change /veh EBF3 (11725865_a_at) / RFU CAMK2N1 (11719241_x_at) / Fold change /veh CAMK2N1 (11719241_x_at) / RFU C5orf56 (11738088_a_at) / Fold change /veh C5orf56 (11738088_a_at) / RFU OLFML3 (11715873_a_at) / Fold change /veh OLFML3 (11715873_a_at) / RFU LOC100653217 /// NTM (11731650_a_at) / Fold change /veh LOC100653217 /// NTM (11731650_a_at) / RFU MAPK11 (11762145_a_at) / Fold change /veh MAPK11 (11762145_a_at) / RFU FIZ1 (11724087_x_at) / Fold change /veh FIZ1 (11724087_x_at) / RFU OASL (11726364_x_at) / Fold change /veh OASL (11726364_x_at) / RFU SOX15 (11748057_x_at) / Fold change /veh SOX15 (11748057_x_at) / RFU CD79A (11719716_a_at) / Fold change /veh CD79A (11719716_a_at) / RFU HIST1H1D (11736915_at) / Fold change /veh HIST1H1D (11736915_at) / RFU CASKIN2 (11723855_a_at) / Fold change /veh CASKIN2 (11723855_a_at) / RFU LOC730098 (11760151_x_at) / Fold change /veh LOC730098 (11760151_x_at) / RFU OR4N2 (11742367_at) / Fold change /veh OR4N2 (11742367_at) / RFU PRRT2 (11749266_a_at) / Fold change /veh PRRT2 (11749266_a_at) / RFU SNX32 (11753110_a_at) / Fold change /veh SNX32 (11753110_a_at) / RFU CDHR5 (11726645_a_at) / Fold change /veh CDHR5 (11726645_a_at) / RFU RCAN1 (11760418_a_at) / Fold change /veh RCAN1 (11760418_a_at) / RFU FAM167A (11723789_a_at) / Fold change /veh FAM167A (11723789_a_at) / RFU FAM26E (11764081_at) / Fold change /veh FAM26E (11764081_at) / RFU ISYNA1 (11749810_s_at) / Fold change /veh ISYNA1 (11749810_s_at) / RFU ACY1 (11761880_at) / Fold change /veh ACY1 (11761880_at) / RFU 11764098_at / Fold change /veh 11764098_at / RFU SAMD14 (11745864_x_at) / Fold change /veh SAMD14 (11745864_x_at) / RFU NPB (11741838_a_at) / Fold change /veh NPB (11741838_a_at) / RFU TMPRSS6 (11731388_a_at) / Fold change /veh TMPRSS6 (11731388_a_at) / RFU KRTAP10-2 (11738614_at) / Fold change /veh KRTAP10-2 (11738614_at) / RFU ARHGAP8 /// PRR5-ARHGAP8 (11727945_x_at) / Fold change /veh ARHGAP8 /// PRR5-ARHGAP8 (11727945_x_at) / RFU KRTAP5-7 /// NADSYN1 (11734609_at) / Fold change /veh KRTAP5-7 /// NADSYN1 (11734609_at) / RFU RASL12 (11751679_a_at) / Fold change /veh RASL12 (11751679_a_at) / RFU CDKN2B (11736163_a_at) / Fold change /veh CDKN2B (11736163_a_at) / RFU PRF1 (11729649_at) / Fold change /veh PRF1 (11729649_at) / RFU, ZNF638 /// ZNF638-IT1 / Fold change vs veh, ZNF638 /// ZNF638-IT1 / RFU, PANK3 / Fold change vs veh, PANK3 / RFU, SH3YL1 / Fold change vs veh, SH3YL1 / RFU, ZEB2 / Fold change vs veh, ZEB2 / RFU, NRIP1 / Fold change vs veh, NRIP1 / RFU, PTTG1IP / Fold change vs veh, PTTG1IP / RFU, CAPN2 / Fold change vs veh, CAPN2 / RFU, MED14 / Fold change vs veh, MED14 / RFU, SNORA58 / Fold change vs veh, SNORA58 / RFU, C1orf63 / Fold change vs veh, C1orf63 / RFU, LRRFIP1 / Fold change vs veh, LRRFIP1 / RFU, NDUFAF7 / Fold change vs veh, NDUFAF7 / RFU, SLC12A2 / Fold change vs veh, SLC12A2 / RFU, IBTK / Fold change vs veh, IBTK / RFU, ESF1 / Fold change vs veh, ESF1 / Fold change vs veh, TMEM50B / RFU, TAOK1 / Fold change vs veh, TAOK1 / RFU, ACBD3 / Fold change vs veh, ACBD3 / RFU, TMA16 / Fold change vs veh, TMA16 / RFU, RWDD3 / Fold change vs veh, RWDD3 / RFU, BCAT1 / Fold change vs veh, BCAT1 / RFU, EDEM3 / Fold change vs veh, EDEM3 / RFU, TMEM33 / Fold change vs veh, TMEM33 / RFU, WDR75 / Fold change vs veh, WDR75 / RFU, AHCTF1 / Fold change vs veh, AHCTF1 / RFU, TFRC / Fold change vs veh, TFRC / RFU, ZDHHC17 / Fold change vs veh, ZDHHC17 / RFU, NOM1 / Fold change vs veh, NOM1 / RFU, ARL8B / Fold change vs veh, ARL8B / RFU, ZBTB11 / Fold change vs veh, ZBTB11 / RFU, TAMM41 / Fold change vs veh, TAMM41 / RFU, KIAA1704 /// LOC100996395 / Fold change vs veh, KIAA1704 /// LOC100996395 / RFU, ING1 / Fold change vs veh, ING1 / RFU, TRMT61B / Fold change vs veh, TRMT61B / RFU, FUBP3 / Fold change vs veh, FUBP3 / RFU, TP53 / Fold change vs veh, TP53 / RFU, TNKS2 / Fold change vs veh, TNKS2 / RFU, ZFP14 / Fold change vs veh, ZFP14 / RFU, ACTR2 / Fold change vs veh, ACTR2 / RFU, PPP3R1 / Fold change vs veh, PPP3R1 / RFU, PIK3R1 / Fold change vs veh, PIK3R1 / RFU, HNRNPA1 / Fold change vs veh, HNRNPA1 / RFU, RNF170 / Fold change vs veh, RNF170 / RFU, ZNF28 / Fold change vs veh, ZNF28 / RFU, RNGTT / Fold change vs veh, RNGTT / RFU, OGT / Fold change vs veh, OGT / RFU, BRD1 / Fold change vs veh, BRD1 / RFU, MARS / Fold change vs veh, MARS / RFU, ZNF655 / Fold change vs veh, ZNF655 / RFU, FAHD1 / Fold change vs veh, FAHD1 / RFU, BDP1 / Fold change vs veh, BDP1 / RFU, LRRCC1 / Fold change vs veh, LRRCC1 / RFU, ARID1A / Fold change vs veh, ARID1A / RFU, ZNF146 / Fold change vs veh, ZNF146 / RFU, ZNF330 / Fold change vs veh, ZNF330 / RFU, GPN3 / Fold change vs veh, GPN3 / RFU, C9orf123 / Fold change vs veh, C9orf123 / RFU, N4BP2L2 / Fold change vs veh, N4BP2L2 / RFU, ARFIP1 / Fold change vs veh, ARFIP1 / RFU, FAM179B / Fold change vs veh, FAM179B / RFU, BCL10 / Fold change vs veh, BCL10 / RFU, UHRF1BP1L / Fold change vs veh, UHRF1BP1L / RFU, BET1 / Fold change vs veh, BET1 / RFU, CNOT2 / Fold change vs veh, CNOT2 / RFU, ZNF268 / Fold change vs veh, ZNF268 / Fold change vs veh, ZNF507 / RFU, DGCR2 / Fold change vs veh, DGCR2 / RFU, WDSUB1 / Fold change vs veh, WDSUB1 / Fold change vs veh, HSP90B1 /// MIR3652 / RFU, ADSS / Fold change vs veh, ADSS / RFU, GK / Fold change vs veh, GK / RFU, ZNF148 / Fold change vs veh, ZNF148 / RFU, TAF9 / Fold change vs veh, TAF9 / RFU, SLC1A5 / Fold change vs veh, SLC1A5 / RFU, SLMO2 / Fold change vs veh, SLMO2 / RFU, ABCC4 / Fold change vs veh, ABCC4 / RFU, LOC101060439 /// RAP1B / Fold change vs veh, LOC101060439 /// RAP1B / RFU, RFX7 / Fold change vs veh, RFX7 / RFU, GTPBP10 / Fold change vs veh, GTPBP10 / RFU, CNEP1R1 / Fold change vs veh, CNEP1R1 / RFU, BIVM-ERCC5 /// ERCC5 / Fold change vs veh, BIVM-ERCC5 /// ERCC5 / RFU, ILF3 / Fold change vs veh, ILF3 / RFU 11762660_at / Fold change /veh 11762660_at / RFU VCAN (11757783_s_at) / Fold change /veh VCAN (11757783_s_at) / RFU DDX43 (11728927_at) / Fold change /veh DDX43 (11728927_at) / RFU KRT8 (11758188_x_at) / Fold change /veh KRT8 (11758188_x_at) / RFU NKD1 (11759106_at) / Fold change /veh NKD1 (11759106_at) / RFU SRD5A1 (11742802_a_at) / Fold change /veh SRD5A1 (11742802_a_at) / RFU TPSAB1 /// TPSB2 (11721975_s_at) / Fold change /veh TPSAB1 /// TPSB2 (11721975_s_at) / RFU GSTM3 (11746129_a_at) / Fold change /veh GSTM3 (11746129_a_at) / RFU IL23R (11737362_x_at) / Fold change /veh IL23R (11737362_x_at) / RFU TMEM51 (11727254_a_at) / Fold change /veh TMEM51 (11727254_a_at) / RFU PIWIL2 (11732686_x_at) / Fold change /veh PIWIL2 (11732686_x_at) / RFU ORM1 (11744905_x_at) / Fold change /veh ORM1 (11744905_x_at) / RFU CCDC152 (11743942_at) / Fold change /veh CCDC152 (11743942_at) / RFU ECM1 (11717891_a_at) / Fold change /veh ECM1 (11717891_a_at) / RFU IL23R (11748794_a_at) / Fold change /veh IL23R (11748794_a_at) / RFU TNFAIP8L3 (11732012_x_at) / Fold change /veh TNFAIP8L3 (11732012_x_at) / RFU MBOAT4 (11741988_at) / Fold change /veh MBOAT4 (11741988_at) / RFU 11764193_at / Fold change /veh 11764193_at / RFU TMEM53 (11763286_at) / Fold change /veh TMEM53 (11763286_at) / RFU MAGEB2 (11727129_at) / Fold change /veh MAGEB2 (11727129_at) / RFU TMEM200A (11744735_a_at) / Fold change /veh TMEM200A (11744735_a_at) / RFU CCDC152 (11751479_a_at) / Fold change /veh CCDC152 (11751479_a_at) / RFU FAM211A (11726209_a_at) / Fold change /veh FAM211A (11726209_a_at) / RFU RGS16 (11746705_a_at) / Fold change /veh RGS16 (11746705_a_at) / RFU VCAN (11755009_s_at) / Fold change /veh VCAN (11755009_s_at) / RFU RHOB (11743442_s_at) / Fold change /veh RHOB (11743442_s_at) / RFU RGS16 (11720943_a_at) / Fold change /veh RGS16 (11720943_a_at) / RFU RGS16 (11720944_at) / Fold change /veh RGS16 (11720944_at) / RFU, VPS4B / Fold change vs veh, VPS4B / RFU, CREB1 / Fold change vs veh, CREB1 / RFU, DNAJC13 / Fold change vs veh, DNAJC13 / RFU, GNAQ / Fold change vs veh, GNAQ / RFU, CDK5R1 / Fold change vs veh, CDK5R1 / RFU, ZRANB3 / Fold change vs veh, ZRANB3 / RFU, CUL4A / Fold change vs veh, CUL4A / RFU, CCNY / Fold change vs veh, CCNY / RFU, UFL1 / Fold change vs veh, UFL1 / RFU, COG3 / Fold change vs veh, COG3 / RFU, DIAPH2 / Fold change vs veh, DIAPH2 / RFU, SKA2 / Fold change vs veh, SKA2 / RFU, AFF3 / Fold change vs veh, AFF3 / RFU, LMF1 / Fold change vs veh, LMF1 / RFU, IPO11 / Fold change vs veh, IPO11 / RFU, DFFB / Fold change vs veh, DFFB / RFU, FOXP1 / Fold change vs veh, FOXP1 / RFU, CARD8 / Fold change vs veh, CARD8 / RFU, STRN3 / Fold change vs veh, STRN3 / RFU, ADK / Fold change vs veh, ADK / RFU, RASSF2 / Fold change vs veh, RASSF2 / RFU, WIPF1 / Fold change vs veh, WIPF1 / RFU, LARP1B / Fold change vs veh, LARP1B / RFU, RASA1 / Fold change vs veh, RASA1 / RFU, RB1 / Fold change vs veh, RB1 / RFU, PPFIA1 / Fold change vs veh, PPFIA1 / RFU, MAT2A / Fold change vs veh, MAT2A / RFU, CCT5 / Fold change vs veh, CCT5 / RFU, WDR92 / Fold change vs veh, WDR92 / RFU, CUX1 / Fold change vs veh, CUX1 / RFU, TTC7A / Fold change vs veh, TTC7A / RFU, TMEM135 / Fold change vs veh, TMEM135 / RFU, DEPTOR / Fold change vs veh, DEPTOR / RFU, CPM / Fold change vs veh, CPM / RFU, DNAJB6 / Fold change vs veh, DNAJB6 / RFU, CACNA2D3 / Fold change vs veh, CACNA2D3 / RFU, DTX4 / Fold change vs veh, DTX4 / RFU, TFCP2 / Fold change vs veh, TFCP2 / RFU, GMCL1 /// GMCL1P1 / Fold change vs veh, GMCL1 /// GMCL1P1 / RFU, AEBP2 / Fold change vs veh, AEBP2 / RFU, SNHG1 /// SNORD22 /// SNORD25 /// SNORD26 /// SNORD27 /// SNORD28 /// SNORD29 /// SNORD31 / Fold change vs veh, SNHG1 /// SNORD22 /// SNORD25 /// SNORD26 /// SNORD27 /// SNORD28 /// SNORD29 /// SNORD31 / Fold change (Aza/veh), C12orf56 (ProbeSet 11735607_a_at) / Fold change (ACY-1035/veh), C12orf56 (ProbeSet 11735607_a_at) / Fold change (Aza/veh), FGFR1OP (ProbeSet 11751329_s_at) / Fold change (ACY-1035/veh), FGFR1OP (ProbeSet 11751329_s_at) / Fold change (Aza/veh), VPS36 (ProbeSet 11739960_a_at) / Fold change (ACY-1035/veh), VPS36 (ProbeSet 11739960_a_at) / RFU SYPL1 (11715823_x_at) / Fold change /veh SYPL1 (11715823_x_at) / RFU IGFBP7 (11715501_s_at) / Fold change /veh IGFBP7 (11715501_s_at) / RFU REEP3 (11722064_at) / Fold change /veh REEP3 (11722064_at) / RFU IGLL1 (11728026_x_at) / Fold change /veh IGLL1 (11728026_x_at): dose or concentration left out as unconfirmed. Conditions: MV-4-11 cells, 48 hours.

Molecules are shown by their SMILES.

On to `Nc1ncn([C@@H]2O[C@H](CO)[C@@H](O)[C@H]2O)c(=O)n1` [azacitidine], for which the “Fold change /veh CD79A (11719716_a_at)” value is on record as 0.94.
